For one assay, the target named is HLA-C0102 (Homo sapiens, UniProt P10321, A176E/A330V/A35S/A97T/C350S/D114A/D33F/L171W/L180R/L218V/M285V/M309V/M331V/P208H/Q277E/Q291P/R121W/R243W/R30K/S123C/S140Y/S297R/T329A/T363A/V272M/V319A). In words: Competitive peptide binding assay, CIR-C0102. The conditions noted are these: HMy2.CIR-C0102 cells, reference Cy5-[…], class from inhibition at 5 and 15 μM, flow cytometry MFI; read-out: Binding affinity with HLA-C0102. The protocol:
(§1) Then, competitive peptide binding assays were performed.
Background: In flow cytometry, cells or beads pass a laser one at a time.

The next assay addresses HLA-C0801 (Homo sapiens, UniProt P10321, A176T/A330V/A97T/C350S/D114A/D138N/D33Y/E201K/E299G/L171W/L218V/M285V/M309V/M331V/P208H/Q277E/Q291P/R59Q/S123Y/S140F/S297R/S48A/T329A/T363A/V319A/V328M). In words: Competitive peptide binding assay, CIR-C0801. The conditions noted are these: HMy2.CIR-C0801 cells, reference Cy5-[…], class from inhibition at 5 and 15 μM, flow cytometry MFI; read-out: Binding affinity with HLA-C0801. The protocol: as §1

A further assay has as its target HLA-C0302 (Homo sapiens, UniProt P10321, A176E/A330V/A97T/C25G/C350S/D114A/D33Y/E197K/L127V/L171W/L218V/M285V/M309V/M331V/P208H/Q277E/Q291P/R243W/R45H/S123Y/S297R/S48A/T118I/T187L/T329A/T363A/V319A). Kind of assay: Competitive peptide binding assay, CIR-C0302. The conditions noted are these: HMy2.CIR-C0302 cells, reference Cy5-[…], class from inhibition at 5 and 15 μM, flow cytometry MFI; read-out: Binding affinity with HLA-C0302. The method, then: as §1

In the next assay the target is HLA-C0303 (Homo sapiens, UniProt P10321, A176E/A330V/A97T/C25G/C350S/D114A/D33Y/E197K/G115R/L119I/L127V/L171W/L218V/M285V/M309V/M331V/P208H/Q277E/Q291P/R243W/R45H/S123Y/S140Y/S297R/S48A/T118I/T187L/T329A/T363A/V319A). In words: Competitive peptide binding assay, CIR-C0303. The conditions noted are these: HMy2.CIR-C0303 cells, reference Cy5-[…], class from inhibition at 5 and 15 μM, flow cytometry MFI; read-out: Binding affinity with HLA-C0303. The method, then: as §1

The target of the next assay is HLA-C1502 (Homo sapiens, UniProt P10321, A176E/A330V/A97T/C350S/D114A/D33Y/K90N/L119I/L171W/L218V/M285V/M309V/M331V/N104K/P208H/Q277E/Q291P/R45H/S101N/S123Y/S140L/S297R/S48A/T118I/T329A/T363A/V319A/V328M/Y137H). In words: Competitive peptide binding assay, CIR-C1502. The conditions noted are these: HMy2.CIR-C1502 cells, reference Cy5-[…], class from inhibition at 5 and 15 μM, flow cytometry MFI; read-out: Binding affinity with HLA-C1502. The protocol:
as §1

In a further assay the target is HLA-C0702 (Homo sapiens, UniProt P10321). Kind of assay: Competitive peptide binding assay, CIR-C0702.
The next assay deals with HLA-C0701 (Homo sapiens, UniProt P10321, K90N/S123Y). In words: Competitive peptide binding assay, CIR-C0701. The conditions noted are these: HMy2.CIR-C0701 cells, reference Cy5-[…], class from inhibition at 5 and 15 μM, flow cytometry MFI; read-out: Binding affinity with HLA-C 0701. The protocol: as §1
For another assay, the target named is HLA-C0602 (Homo sapiens, UniProt P10321, A176E/A330V/C350S/L171W/L180W/L218V/M285V/M309V/M331V/N104K/P208H/Q277E/Q291P/R121W/S101N/S123Y/S297R/T329A/T363A/V319A/V328M). Kind of assay: Competitive peptide binding assay, CIR-C0602.
Another assay has as its target HLA-C0304 (Homo sapiens, UniProt P10321, A176E/A330V/A97T/C25G/C350S/D114A/D33Y/E197K/L119I/L127V/L171W/L218V/M285V/M309V/M331V/P208H/Q277E/Q291P/R243W/R45H/S123Y/S140Y/S297R/S48A/T118I/T187L/T329A/T363A/V319A). In words: Competitive peptide binding assay, CIR-C0304. The following applies: HMy2.CIR-C0304 cells, reference Cy5-[…], class from inhibition at 5 and 15 μM, flow cytometry MFI; read-out: Binding affinity with HLA-C0304. The method, then: as §1

The target of another assay is HLA-C1202 (Homo sapiens, UniProt P10321, A176E/A330V/C350S/D114A/D33Y/L171W/L180W/L218V/M285V/M309V/M331V/P208H/Q277E/Q291P/S123Y/S297R/S48A/T329A/T363A/V319A/V328M). In words: Competitive peptide binding assay, CIR-C1202. The conditions noted are these: HMy2.CIR-C1202 cells, reference Cy5-[…], class from inhibition at 5 and 15 μM, flow cytometry MFI; read-out: Binding affinity with HLA-C1202. The method, then:
as §1

A further assay deals with HLA-B5101 (Homo sapiens, UniProt P01889, A329T/A93T/A95T/C349S/D138N/D201E/D98Y/E187L/E204Q/E69T/G107R/I218V/K202T/L105A/L119W/N104I/Q94N/R106L/R155S/R180L/S101N/S121T/S35A/S48A/V306I/V36M/Y195H/Y91F). Kind of assay: Competitive peptide binding assay, CIR-B5101. The conditions noted are these: HMy2.CIR-B5101 cells, reference Cy5-[…], class from inhibition at 5 and 15 μM, flow cytometry MFI; read-out: Binding affinity with HLA-B5101. The method, then:
as §1

In the next assay the target is HLA-B5201 (Homo sapiens, UniProt P01889, A329T/A93T/A95T/C349S/D138N/D201E/D98Y/E187L/E204Q/E69T/G107R/I218V/K202T/L105A/L119W/N104I/N87E/Q94N/R106L/R155S/R180L/S101N/S121T/S35A/S48A/V306I/V36M/Y195H/Y91S). In words: Competitive peptide binding assay, CIR-B5201. The conditions noted are these: HMy2.CIR-B5201 cells, reference Cy5-[…], class from inhibition at 5 and 15 μM, flow cytometry MFI; read-out: Binding affinity with HLA-B5201. The method, then: as §1

A further assay has as its target HLA-C1402 (Homo sapiens, UniProt P10321, A176E/A330V/A35S/A97T/C350S/D114A/D33S/L171W/L180R/L218V/M285V/M309V/M331V/P208H/Q277E/Q291P/R121W/R243W/S123F/S297R/S48A/T329A/T363A/V319A). Kind of assay: Competitive peptide binding assay, CIR-C1402. The following applies: HMy2.CIR-C1402 cells, reference Cy5-[…], class from inhibition at 5 and 15 μM, flow cytometry MFI; read-out: Binding affinity with HLA-C1402. The protocol: as §1

Peptide text beside a SMILES is read from it.

In the case of `C[C@H](NC(=O)[C@H](CO)NC(=O)[C@H](CO)NC(=O)[C@@H](N)Cc1ccc(O)cc1)C(=O)N[C@@H](CC(N)=O)C(=O)N[C@@H](CC(N)=O)C(=O)N[C@@H](CS)C(=O)N[C@H](C(=O)N[C@@H](Cc1ccccc1)C(=O)O)[C@@H](C)O` [Epitope M64] (H-YSSANNCTF-OH; N-terminus and C-terminus assumed), the IC50 at HLA-C0102 was more than 15 µM; on HLA-C0801 it was more than 15 µM; on HLA-C0302, 5 to 15 µM; on HLA-C0303, more than 15 µM; at HLA-C1502, less than 5 µM; on HLA-C0702, more than 15 µM.

Turning to `CC(C)[C@H](NC(=O)[C@@H](N)Cc1ccccc1)C(=O)N[C@@H](CO)C(=O)N[C@@H](CC(N)=O)C(=O)NCC(=O)N[C@H](C(=O)N[C@@H](Cc1c[nH]cn1)C(=O)N[C@@H](Cc1c[nH]c2ccccc12)C(=O)N[C@@H](Cc1ccccc1)C(=O)O)[C@@H](C)O` [Epitope M68] (H-FVSNGTHWF-OH; N-terminus and C-terminus assumed), the IC50 at HLA-C0801 was more than 15 µM; on HLA-C1502 it was 5 to 15 µM; at HLA-C0701 it was more than 15 µM; on HLA-C0602, more than 15 µM; on HLA-C0702, more than 15 µM.

Take `CC(C)C[C@H](NC(=O)[C@H](Cc1ccccc1)NC(=O)[C@@H](NC(=O)[C@@H](N)C(C)C)C(C)C)C(=O)N[C@@H](Cc1c[nH]cn1)C(=O)N[C@H](C(=O)N[C@H](C(=O)N[C@@H](Cc1ccc(O)cc1)C(=O)N[C@H](C(=O)O)C(C)C)[C@@H](C)O)C(C)C` [Epitope M131] (H-VVFLHVTYV-OH; N-terminus and C-terminus assumed): the IC50 on HLA-C0102 is 5 to 15 µM; on HLA-C0304 it was 5 to 15 µM; at HLA-C0302 it was more than 15 µM; on HLA-C1202 it was more than 15 µM; at HLA-C0702, more than 15 µM.

In the case of `CC[C@H](C)[C@H](N)C(=O)N[C@@H](C)C(=O)N[C@@H](CCSC)C(=O)N[C@@H](C)C(=O)N[C@@H](CS)C(=O)N[C@@H](CC(C)C)C(=O)N[C@H](C(=O)NCC(=O)N[C@@H](CC(C)C)C(=O)O)C(C)C` [Epitope M44] (H-IAMACLVGL-OH; N-terminus and C-terminus assumed), the IC50 is less than 5 µM on HLA-C0102; more than 15 µM on HLA-C0801; more than 15 µM on HLA-C0304; less than 5 µM on HLA-C0302; more than 15 µM at HLA-C0303; more than 15 µM on HLA-C0701. Further, the IC50 on HLA-C0602 and on HLA-C0702 was more than 15 µM throughout.

Consider `CC(C)C[C@H](NC(=O)[C@H](CCC(N)=O)NC(=O)[C@H](CC(=O)O)NC(=O)[C@H](C)NC(=O)[C@@H](N)Cc1c[nH]cn1)C(=O)N[C@H](C(=O)N1CCC[C@H]1C(=O)N[C@H](C(=O)N[C@@H](Cc1c[nH]c2ccccc12)C(=O)O)[C@@H](C)O)[C@@H](C)O` [Epitope Y313] (H-HADQLTPTW-OH; N-terminus and C-terminus assumed), for which the figures for the IC50 at HLA-B5101 and at HLA-B5201 were more than 15 µM and 5 to 15 µM, respectively.

`CC[C@H](C)[C@H](NC(=O)[C@H](C)NC(=O)[C@H](C)NC(=O)[C@H](CC(N)=O)NC(=O)CNC(=O)[C@H](CC(=O)O)NC(=O)[C@H](CCC(N)=O)NC(=O)[C@H](C)NC(=O)[C@@H](N)Cc1ccccc1)C(=O)O` [Epitope M22] (H-FAQDGNAAI-OH; N-terminus and C-terminus assumed): the IC50 is more than 15 µM at HLA-C0102; less than 5 µM on HLA-C0801; 5 to 15 µM on HLA-C0304; less than 5 µM on HLA-C0302; more than 15 µM on HLA-C0303; more than 15 µM on HLA-C0701. This compound returned an IC50 on HLA-C0602 of more than 15 µM.

As to `CC(C)C[C@H](NC(=O)[C@H](CCC(=O)O)NC(=O)[C@H](Cc1ccccc1)NC(=O)[C@H](CO)NC(=O)[C@H](CC(C)C)NC(=O)[C@@H](NC(=O)[C@@H](NC(=O)[C@@H](NC(=O)[C@H](CCCNC(=N)N)NC(=O)[C@@H](N)Cc1ccc(O)cc1)C(C)C)C(C)C)C(C)C)C(=O)O` [Epitope M156] (H-YRVVVLSFEL-OH; N-terminus and C-terminus assumed), the IC50 was 5 to 15 µM at HLA-C0102; more than 15 µM at HLA-C0304; more than 15 µM at HLA-C0303; more than 15 µM at HLA-C1402; more than 15 µM at HLA-C1202.

These data come from paper PMC12133982, “Predominant T-cell epitopes of SARS-CoV-2 restricted by multiple prevalent HLA-B and HLA-C allotypes in Northeast Asia” (Frontiers in Immunology, 2025).
